# Measurements: US6803233B2, “Model for Alzheimer's disease and other neurodegenerative diseases” (priority 2000, dated 2004)
# “Also recorded” adds a separate entry of the source. Square brackets hold non-standard residues; d marks the D form. Peptide text beside a SMILES is read from it. Nle = CCCC[C@H](N)C(=O)O
# Experiments:
# APP = experiment: Immunoblot of APP in hippocampal slices, mevastatin plus kinase inhibitors (Example 8); assay type: cell-based
# MAPK (ERK1/2) = experiment: Immunoblot with anti-active MAPK in cultured hippocampal slices; assay type: cell-based; details: 6 days
# tangle-like structures = experiment: AT8 immunostaining of cultured rat hippocampal slices; assay type: cell-based; details: for number of ZPAD-induced tangles in the presence of the inhibitor: hippocampal slices, ZPAD plus inhibitor, 6 days
# Method: Cultured slices were stained with anti-phosphorylated tau antibody AT8.
# (§1) Cultures of hippocampal slices were prepared from 10-12 days old rats.
# Cultured rat hippocampal slices of 12 days in vitro were treated with 20 μM pravastatin for 6 days and processed from immunohistological studies with the monoclonal antibody AT8. The subiculum, CA1 field, and CA3 field of the hippocampus were examined by photomicroscopy.
# reactive microglia = experiment: ED-1 immunocytochemistry of cultured brain explants; assay type: cell-based, rat; details: 6 days
# Method: Immunocytochemical studies using the monoclonal antibody ED-1 that recognizes reactive microglia were used at 1:1000 dilution following standard immunohistochemical procedures. Microglial activation was determined by measuring cell numbers, optical density, and size of cell bodies using the program NIH Image. Brain tissue was cultured for 12 days and treated with ZPAD (20 μM) in the presence or absence of PD98059 (50 μM) for 6 days (FIG. 18). Cultured explants were then sliced and stained by using monoclonal antibody ED-1 which recognizes reactive microglia, a classical marker of inflammation. […] Cultured brain explants were then sliced and stained by using monoclonal antibody ED-1, a classical marker for reactive microglia and macrophages.
# TGF-beta = experiment: RT-PCR/northern blot of cytokine mRNA in cultured hippocampal slices; assay type: cell-based
# p35 [1] = experiment: Immunoblot of p35/p25 in cultured rat hippocampal slices; assay type: cell-based; details: 6 days
# Method: Hippocampal slices were collected, homogenized, and subjected to SDS-PAGE electrophoresis. Immunoblots were then probed with anti-p35 sera that were raised against the C-terminal domain of p35.
# as §1
# tau = experiment: Immunoblot of tau (tau-1, AT8) in cultured rat hippocampal slices; assay type: cell-based
# Method: Immunoblotting was carried out by using anti-non phosphorylated tau antibody, tau-1 or anti-phosphorylated tau antibody, AT8.
# as §1
# tau protein = details: literature report; cited from earlier work
# cathepsin D = details: literature report; cited from earlier work
# [2] = tested on: amyloid precursor protein (APP); experiment: Immunoblot of APP (antibody 22C11) in hippocampal slices from apoE-knockout mice; assay type: cell-based, mouse
# Source text: Tissues were processed for immunoblotting and assessed by monoclonal antibody 22C11, which recognizes the N-terminal domain of amyloid precursor protein (APP). […] Whether this new product is due to proteolysis or changes in protein maturation is under investigation.
# p35 [3] = experiment: Immunoblot of p35 in hippocampal slices from apoE-knockout mice; assay type: cell-based; details: apoE-knockout mouse slices; mevastatin plus agent
# microglia = experiment: CD11b immunostaining of hippocampus of rats injected daily with statins; assay type: in vivo, rat; details: male Sprague-Dawley rats, 10 mg/kg i.p. daily for 39 days
# Method: Brains were then removed, postfixed in perfusate for 5-6 hors, and cryoprotected in 15% sucrose/PB followed by 30% sucrose/PB (12-24 hours each) at 4° C. Coronal sections were cut at 20-30 μm by using a freezing microtome and collected into PBS. Immunostaining was performed as described for the in vitro experiments using monoclonal antibody CD11b that reacts with both active and non-active microglia.
# IL-10 = experiment: RT-PCR/northern blot of cytokine mRNA in cultured hippocampal slices; assay type: cell-based; details: ZPAD 20 μM, mevastatin 20 μM
# TNF-alpha = experiment: as above; assay type: cell-based; details: mevastatin 20 μM
# Source text: FIG. 17. Messenger RNA levels of TNF-alpha are increased by interruption of cholesterol synthesis.
# Levels of mRNA for the cytokines were quantified by RT-PCR and northern blot analysis, following protocols outlined in the RT-PCR kit (Ambion Inc.).
smiles,measurement,setting,value
"COc1cccc(-c2cc(=O)c3ccccc3o2)c1N [PD98059, 2-2(Amino-3-methoxyphenyl)-4H-1-benzopyran-4-one]",effects of mevastatin on APP in the presence of the inhibitor,APP,partially blocked
same,MAPK activation by mevastatin and ZPAD in the presence of the inhibitor,MAPK (ERK1/2),blocked
same,number of ZPAD-induced tangles in the presence of the inhibitor,tangle-like structures,significantly reduced
same,ZPAD-induced reaction of microglia with co-application of the inhibitor,reactive microglia; ZPAD 20 μM plus PD98059 50 μM,completely blocked
same,reaction of microglia (ED-1 staining),"reactive microglia; ZPAD 20 μM, mevastatin 20 μM or PD98059 50 μM alone",did not induce evident change in microglia
same,mRNA levels for certain cytokines (FIG. 16),TGF-beta; PD98059 treatment,decreased
"CCCC[C@@H](C=O)NC(=O)[C@H](CC(C)C)NC(=O)[C@H](CC(C)C)NC(C)=O [calpain inhibitor I, N-acetyl-leucyl-leucyl-norleucinal] (Ac-Leu-Leu-[Nle]-aldehyde)",ZPAD-induced conversion of p35 to p25 in the presence of the inhibitor,p35 [1]; ZPAD plus inhibitor,significantly inhibited
same,number of ZPAD-induced tangles in the presence of the inhibitor,tangle-like structures,significantly reduced
same,ZPAD-induced tau fragments (tau 15-35 / tau 29 and tau 40) in the presence of the inhibitor,"tau; ZPAD plus inhibitor, 6 days, 2 separate experiments",almost completely blocked
CCN(CC)CCCC(C)Nc1ccnc2cc(Cl)ccc12 (stereo not drawn) [chloroquine],29 kDa tau fragment (tau 29),tau protein,delayed appearance of a 29 kDa fragment
same,enzymatically active cathepsin D,cathepsin D,increases in enzymatically active cathepsin D
CC(O)(CCO)CC(=O)O (stereo not drawn) [mevalonate],effects of mevastatin on APP in the presence of the agent,[2]; mevastatin plus agent,completely blocked
same,mevastatin-induced down regulation of p35 in the presence of the agent,p35 [3],completely blocked
CC[C@H](C)C(=O)O[C@H]1CCC=C2C=C[C@H](C)[C@H](CC[C@@H]3C[C@@H](O)CC(=O)O3)[C@H]21 [mevastatin],levels of full length APP,[2]; mevastatin treatment,increased levels
same,novel APP band with molecular weight slightly lower than native APP,[2]; mevastatin treatment,induced a novel band
same,levels of full length APP,"[2]; mevastatin treatment, listed as Mevastatin",markedly increased
same,levels of p35,p35 [1]; hippocampal slices,significant decreases; also recorded: rapidly and markedly decreased; also recorded: reduced
same,activated MAPK (ERK1/2),MAPK (ERK1/2); hippocampal slices,activated; also recorded: increased; also recorded: activation
same,induction of AT8-immunoreactive tangle-like structures,"tangle-like structures; rat hippocampal slices, agent applied for 6 days",moderately increased; also recorded: resulted in tangle-like structures
same,microglial reactions,microglia,induced; also recorded: Induction of microglial reactions
same,mRNA levels of IL-10,IL-10,increased
same,phosphorylated 33 kDa tau breakdown products (AT8 blot),tau; rat hippocampal slices,markedly enhanced
same,mRNA levels of TGF-beta,"TGF-beta; ZPAD 20 μM, mevastatin 20 μM",increased
same,mRNA level of TNF-alpha,TNF-alpha,markedly increase
